Reference: patent US4020164A, “Benzomorphan derivatives” (priority 1972, dated 1977)
Entries after “also recorded” stand apart in the source; their conditions may differ. Structures can show the parent of a compound that is named as a salt. Where two headings read alike, the source gives them in different places.

Tests used:
electroshock = assay: Maximal electroshock test; format: in vivo; conditions: mice; for ED50, Maximal Electroshock Test / ED50: 16 mA/50 c.p.s., 0.2 second, transcorneal, absence of tonic extensor cramp of hind limbs, 30 min; for ED50, Maximal Electroshock Test: s.c.; for ED50: Mus musculus, sc, 0.5 h
Method: 10-40 controls animals were used in each experiment. […] ED50 figures were rounded.
In the maximum electroshock test, the test substances were administered to dose groups of 6 mice. Sinusoidal pulses of 16 milliamperes/50 c.p.s. [Hertz] and 0.2 second duration were delivered transcorneally via silver electrodes. The shock intensity used elicits nonlethal tonic-clonic convulsions in control animals (p <0.01, N = 192). The criterion for protective effect was the absence of the tonic extensor cramp of the hind limbs after shock application (modified test according to Swinyard et al., J. Pharmacol. Exp. Ther. 106, 319, 1952).

apomorphine = assay: Apomorphine antagonism test; format: in vivo, mice; conditions: for apomorphine-antagonistic activity compared with cyclazocine and pentazocine: vs. cyclazocine and pentazocine; for apomorphine-antagonistic activity compared with haloperidol: vs. haloperidol; for ED50, Apomorphine Antagonism: mouse, in vivo, 1.56 mg/kg; for ED50: read-out: ED50, Apomorphine Antagonism
Method: (§1) The pharmacological investigations were conducted on mice weighing 20-22 g. or on rats weighing 80-110 g. Unless indicated otherwise, the test substances were administered in the form of the hydrochloride acid addition salt thereof in an isotonic NaCl solution, and the animals were examined 30 minutes after subcutaneous (sc) application. The injection volume was respectively 5 ml./kg. of body weight. 10-40 controls animals were used in each experiment. The test and control solutions were administered in accordance with a randomized injection schedule. Seven logarithmically spaced dosages were employed of each test substance. The effective dose (ED) was calculated by probit analysis (Finney, D. J., "Probit Analysis," Cambridge University Press, 2nd Edition, Cambridge 1957). ED50 figures were rounded.
The criterion for antagonistic effect was the absence of stereotyped movements within an observation period of one minute.

phenylquinone [1] = assay: Writhing test, acute (phenylquinone writhing, analgesic activity); format: in vivo; conditions: mice; for ED50, writhing test, acute p.o., 10 min. p.i. / ED50, writhing test, acute p.o., 30 min. p.i. / ED50, writhing test, acute s.c., 30 min. p.i. / ED50, writhing test, acute s.c., 10 min. p.i. / ED50: phenylquinone 2 mg/kg i.p., hydrochloride, acute; for potency in writhing test compared with cyclazocine: vs. cyclazocine; for potency in writhing test compared with morphine: vs. morphine; for potency in writhing test compared with pentazocine: vs. pentazocine
Method: as §1
(§2) In the acute test, the test compounds were administered perorally (p.o.) or subcutaneously (s.c.) to mice. Eight mice were used per dose. Seven minutes prior to the testing, the animals received 2 mg./kg. of phenylquinone intraperitoneally. […] The criterion for protective effect was absence of writhes during the eighth minute after phenylquinone administration.

morphine [2] = tested on: morphine; design: species or system mice; conditions: mouse, in vivo; for ED50, Morphine Antagonism-Tail-Flick Test, Mice: 12.5 mg/kg
morphine [3] = assay: animal or person; format: in vivo, rats; conditions: for ED50, Morphine Antagonism-Tail-Flick Test, Rats: 6.25 mg/kg
phenylquinone [4] = conditions: mice; s.c.; 30 min p.i.; 25 hours after last injection of 64-hour pretreatment, total 550 mg/kg
Method: as §1, §2
In the subchronic test, the same test was performed 25 hours after the last injection of a 64-hour pretreatment period, with the test compound being administered subcutaneously. During the pretreatment period, the subjects received a total of 550 mg/kg. of the test compound, with the test compound being injected over a period of 22 hours in 4 increasing dosages in salt form, and over an additional 42 hours in 2 identical dosages in free base form in sesame oil.

morphine [5] = assay: Precipitated Withdrawal Jumping Test (morphine antagonism in morphine-dependent mice); format: in vivo
Method: as §1
The test compound was given to dose groups of 8 animals. The antagonist-precipitated withdrawal jumping frequencies were recorded during three 5-minute observation intervals uniformly distributed over 30 minutes after administration of the test compound. […] The criterion for a precipitating effect is a mean jumping frequency of >1/minute.

[6] = J. Pharmacol. Exp. Ther. 144, 12, 1964; Clin. Pharmacol. Ther. 11:1, 41, 1970; cited from earlier work
[7] = p.o., 10 min p.i., ED50 rounded
[8] = p.o., 30 min p.i., ED50 rounded
[9] = s.c., 30 min p.i., * = significant difference between acute and subchronic ED50 (p < 0.001)
[10] = s.c., 10 min p.i., ED50 rounded
[11] = morphine-dependent mice, criterion mean jumping frequency >1/minute

CCC12CCN(CC(C)(C)O)C(Cc3ccc(O)cc31)C2C (single isomer, unassigned; (-)) [Compound A, (-)-5-ethyl-2'-hydroxy-2-(2-hydroxy-2-methylpropyl)-9-methyl-6,7-benzomorphan]
muscle-relaxant and anti-convulsant effect in maximum electroshock test (in words) (electroshock): strong muscle-relaxant and anti-convulsant effect | ED50, Maximal Electroshock Test (electroshock): 8 mg/kg | apomorphine-antagonistic activity compared with cyclazocine and pentazocine (apomorphine; mice): markedly stronger activity than cyclazocine and pentazocine | apomorphine-antagonistic activity compared with haloperidol (apomorphine; mice): only slightly weaker effectiveness than haloperidol | ED50, Apomorphine Antagonism (apomorphine; sc): 0.3 mg/kg | ED50, writhing test, acute p.o., 10 min. p.i. (phenylquinone [1]; [7]): 3 mg/kg | ED50, writhing test, acute p.o., 30 min. p.i. (phenylquinone [1]; [8]): 7 mg/kg | ED50, writhing test, acute s.c., 30 min. p.i. (phenylquinone [1]; [9]): 0.2 mg/kg | potency in writhing test compared with cyclazocine (phenylquinone [1]): at least equipotent with cyclazocine | potency in writhing test compared with morphine (phenylquinone [1]): more potent than morphine | potency in writhing test compared with pentazocine (phenylquinone [1]): appreciably more potent than pentazocine

CC1C2Cc3ccc(O)cc3C1(C)CCN2CC(C)(C)O (single isomer, unassigned; (-)) [Compound B, (-)-2'-hydroxy-2-(2-hydroxy-2-methylpropyl)-5,9-dimethyl-6,7-benzomorphan]
morphine-antagonistic activity, tail-flick test (in words), mice (morphine [2]): marked activity | ED50, Morphine Antagonism-Tail-Flick Test, Mice (morphine [2]; sc): 5 mg/kg | morphine-antagonistic activity, tail-flick test (in words), rats (morphine [3]; rat, in vivo): marked activity | ED50, Morphine Antagonism-Tail-Flick Test, Rats (morphine [3]; rat, in vivo, sc): 3 mg/kg | muscle-relaxant and anti-convulsant effect in maximum electroshock test (in words) (electroshock): strong muscle-relaxant and anti-convulsant effect | ED50, Maximal Electroshock Test (electroshock): 4 mg/kg | apomorphine-antagonistic activity compared with cyclazocine and pentazocine (apomorphine; mice): markedly stronger activity than cyclazocine and pentazocine | apomorphine-antagonistic activity compared with haloperidol (apomorphine; mice): only slightly weaker effectiveness than haloperidol | ED50, Apomorphine Antagonism (apomorphine; sc): 0.3 mg/kg | ED50, writhing test, subchronic s.c., 30 min. p.i. (phenylquinone [4]): 0.4 mg/kg | precipitated withdrawal effect (in words) (morphine [5]; morphine-dependent mice): inactivity | sedative and muscle-relaxant effect (explaining inactivity in jumping test) (morphine [5]; morphine-dependent mice): simultaneous sedative and muscle-relaxant effect | ED50, Precipitated Withdrawal Jumping Test (inactive, footnote 1) (morphine [5]; morphine-dependent mice, tested at 0.1 - 3.13 mg/kg): Inactive | ED50, writhing test, acute p.o., 10 min. p.i. (phenylquinone [1]; [7]): 5 mg/kg | ED50, writhing test, acute p.o., 30 min. p.i. (phenylquinone [1]; [8]): 10 mg/kg | ED50, writhing test, acute s.c., 10 min. p.i. (phenylquinone [1]; [10]): 0.05 mg/kg | ED50, writhing test, acute s.c., 30 min. p.i. (phenylquinone [1]; [9]): 0.4 mg/kg | potency in writhing test compared with cyclazocine (phenylquinone [1]): at least equipotent with cyclazocine | potency in writhing test compared with morphine (phenylquinone [1]): more potent than morphine | potency in writhing test compared with pentazocine (phenylquinone [1]): appreciably more potent than pentazocine

CCC12CCN(CC(C)O)C(Cc3ccc(O)cc31)C2C (single isomer, unassigned; (-)) [Compound C, (-)-5-ethyl-2'-hydroxy-2-(2-hydroxypropyl)-9-methyl-6,7-benzomorphan]
morphine-antagonistic activity, tail-flick test (in words), mice (morphine [2]): marked activity | ED50, Morphine Antagonism-Tail-Flick Test, Mice (morphine [2]; sc): 1 mg/kg | morphine-antagonistic activity, tail-flick test (in words), rats (morphine [3]; rat, in vivo): marked activity | ED50, Morphine Antagonism-Tail-Flick Test, Rats (morphine [3]; rat, in vivo, sc): 2 mg/kg | precipitated withdrawal effect (in words) (morphine [5]; morphine-dependent mice): considerable activity | ED50, Precipitated Withdrawal Jumping Test (morphine [5]; [11]): 7 mg/kg

CC(O)CN1CCC2(C)c3cc(O)ccc3CC1C2C (single isomer, unassigned; (-)) [Compound D, (-)-2'-hydroxy-2-(2-hydroxypropyl)-5,9-dimethyl-6,7-benzomorphan]
morphine-antagonistic activity, tail-flick test (in words), mice (morphine [2]): marked activity | ED50, Morphine Antagonism-Tail-Flick Test, Mice (morphine [2]; sc): 1 mg/kg | morphine-antagonistic activity, tail-flick test (in words), rats (morphine [3]; rat, in vivo): marked activity | ED50, Morphine Antagonism-Tail-Flick Test, Rats (morphine [3]; rat, in vivo, sc): 2 mg/kg | precipitated withdrawal effect (in words) (morphine [5]; morphine-dependent mice): considerable activity | ED50, Precipitated Withdrawal Jumping Test (morphine [5]; [11]): 9 mg/kg

CNC1=Nc2ccc(Cl)cc2C(c2ccccc2)=[N+]([O-])C1 [Chlordiazepoxide, reference compound]
ED50 (electroshock): 12 mg/kg

C[C@H]1[C@H]2Cc3ccc(O)cc3[C@]1(C)CCN2CC1CC1 [Cyclazocine, reference compound]
ED50, Morphine Antagonism-Tail-Flick Test, Mice (morphine [2]; sc): 0.1 mg/kg | ED50 (morphine [3]; Rattus norvegicus, sc, read-out: ED50, Morphine Antagonism-Tail-Flick Test, Rats): 0.2 mg/kg | ED50 (electroshock): 2 mg/kg | muscle-relaxant and anti-convulsant effect in maximum electroshock test (in words) (electroshock): strong muscle-relaxant and anti-convulsant effect | ED50 (apomorphine; Mus musculus, sc): 6 mg/kg | properties of cyclazocine from the literature [6]: narcotic partial antagonist of the benzomorphan series with analgesic; also recorded: antidepressant properties | precipitated withdrawal effect (in words) (morphine [5]; morphine-dependent mice): inactivity | sedative and muscle-relaxant effect (explaining inactivity in jumping test) (morphine [5]; morphine-dependent mice): simultaneous sedative and muscle-relaxant effect | ED50, Precipitated Withdrawal Jumping Test (inactive, footnote 2) (morphine [5]; morphine-dependent mice, tested at 0.55 - 3.13 mg/kg): Inactive | ED50 (phenylquinone [1]; Mus musculus, po, 10 min, p.o., 10 min p.i., ED50 rounded, read-out: ED50, writhing test, acute p.o., 10 min. p.i.): 6 mg/kg | ED50 (phenylquinone [1]; Mus musculus, po, 0.5 h, p.o., 30 min p.i., ED50 rounded, read-out: ED50, writhing test, acute p.o., 30 min. p.i.): 8 mg/kg | ED50 (phenylquinone [1]; Mus musculus, sc, 10 min, s.c., 10 min p.i., ED50 rounded, read-out: ED50, writhing test, acute s.c., 10 min. p.i.): 0.06 mg/kg | ED50 (phenylquinone [1]; Mus musculus, sc, 0.5 h, s.c., 30 min p.i., * = significant difference between acute and subchronic ED50 (p < 0.001), read-out: ED50, writhing test, acute s.c., 30 min. p.i.): 0.09 mg/kg

O=C(CCCN1CCC(O)(c2ccc(Cl)cc2)CC1)c1ccc(F)cc1 [Haloperidol, reference compound]
ED50 (apomorphine; Mus musculus, sc): 0.1 mg/kg

CN1CC[C@]23c4c5ccc(O)c4O[C@H]2[C@@H](O)C=C[C@H]3[C@H]1C5 [Morphine, reference compound]
ED50, writhing test, subchronic s.c., 30 min. p.i. (phenylquinone [4]): 3 mg/kg | ED50, writhing test, acute p.o., 10 min. p.i. (phenylquinone [1]; [7]): 7 mg/kg | ED50, writhing test, acute p.o., 30 min. p.i. (phenylquinone [1]; [8]): 3 mg/kg | ED50, writhing test, acute s.c., 10 min. p.i. (phenylquinone [1]; [10]): 0.3 mg/kg | ED50, writhing test, acute s.c., 30 min. p.i. (phenylquinone [1]; [9]): 0.5 mg/kg

C=CCN1CC[C@]23c4c5ccc(O)c4O[C@H]2C(=O)CC[C@@]3(O)[C@H]1C5 [Naloxone, reference compound]
ED50 (morphine [5]; Mus musculus, sc, morphine-dependent mice, criterion mean jumping frequency >1/minute): 0.2 mg/kg | jumping frequency, solvent controls challenged with naloxone (morphine [5]; mice, solvent controls, naloxone 0.39 mg/kg, N = 80): 0.13 ± 0.06 min⁻¹

CN1CCc2cccc3c2[C@H]1Cc1ccc(O)c(O)c1-3 [apomorphine hydrochloride, reference compound]
ED95 (apomorphine; Mus musculus, sc, mice, ED95, s.c., read-out: apomorphine dose corresponding to an ED95 for the production of stereotyped behavior in the head region): 1.56 mg/kg

CN1CC[C@]23c4c5ccc(O)c4O[C@H]2[C@@H](O)C=C[C@H]3[C@H]1C5.O=S(=O)(O)O [morphine sulfate, reference compound]
morphine dose corresponding to the ED80, reaction times exceeding 95% value of controls (morphine [2]; sc): 12.5 mg/kg | morphine dose corresponding to the ED99, reaction times exceeding 95% value of controls (morphine [3]; rat, in vivo): 6.25 mg/kg

O=C1C=CC(=O)C(c2ccccc2)=C1 [phenylquinone, reference compound]
ED95 (phenylquinone [1]; Mus musculus, ip, 10 min, ED95, intraperitoneal, maximum action within 10 minutes p.i., read-out: phenylquinone dosage corresponding to the ED95 for the evocation of writhing): 2 mg/kg
